In patent US20250195528A1, “DOSE REGIMEN OF VICASINABIN” (Hoffmann-La Roche Inc., priority 2022, published 2025):
“And” between values parts separate entries of the source, which are not always exact repeats. Equal values may be shown once. “Also recorded” adds a separate entry of the source. Read-outs that look alike come from different tables or passages of the source.

Experiments:
[1] = target: cynomolgus monkey CB2 (Macaca fascicularis, UniProt G7NVV5); test: Forskolin-stimulated cAMP inhibition in stably transfected CHO cells; assay type: cell-based
Source text: Inhibition of cAMP accumulation in Chinese hamster ovary cells stably expressing recombinant CB2 was used to determine the functional potency of RO6868847 for different CB2 species and the selectivity over the closely related CB1. […] Table 4 summarizes the potency from different CB2 species.

[2] = tested on: 78 additional receptors and ion channels; test: Radioligand binding assays on additional receptors and ion channels
[3] = target: T1, CB2 receptor on B-cells (Homo sapiens, UniProt P34972); test: In vitro target engagement: CB2 surface expression on peripheral B cells in whole blood (flow cytometry); assay type: cell-based; conditions: for Emax: read-out: Mean Emax ± SD (%)
T1 construct: B cells show a low but robust surface expression of CB2; endogenous in cells; host or cells: B cells in human whole blood (healthy participants, diabetic patients)
Source text: To monitor target engagement by RO6868847 in humans, a flow cytometry assay was developed utilizing an in-house monoclonal anti-human CB2 antibody in combination with established blood cell markers (CD45, CD14, CD3, and CD19) (1078220). […] As with most GPCR agonists, RO6868847 is expected to trigger CB2 receptor internalization upon CB2 activation, resulting in decreased surface detection. In order to establish this measure as a surrogate target engagement biomarker, freshly isolated whole blood samples (n=9) from healthy participants were incubated in duplicates in vitro for 1 hour at 37° C. with eight different increasing concentrations of RO6868847 and were subsequently subjected to the flow cytometry assay (1078220).
The availability of this in vitro target engagement assay also enabled us to explore the target engagement—exposure response in blood samples obtained from patients with diabetic mellitus (Type 1 and Type 2) and healthy controls matched for age, gender and BMI (Table 6) (1097891). This population was selected as it is similar to the envisaged target patient population for the proof-of-concept Phase II trial, encompassing diabetic patients according to definition by the World Health Organization and/or the American Diabetes Association.

[4] = tested on: leukostasis in the eye; test: Leukostasis in the eye, rodent diabetic and non-diabetic model; assay type: in vivo
Description: Pharmacological studies were performed in vitro and in vivo to investigate the potency, selectivity and activity of RO6868847. Pharmacological effects were determined in vivo in two different diabetic animal models which include the streptozotocin (STZ)-induced rat Type 1 diabetes and genetic Type 2 diabetes mouse models as well as in two acute models with acute inflammatory stimulus (LPS-injections) or laser injury (CNV). Additional in vitro pharmacology studies were performed to explore the pharmacological effect of RO6868847 and the suitability of the assays as biomarkers of target engagement and pharmacodynamic effect (PD) in human whole blood obtained from either healthy volunteers or diabetic patients.
The diversity of the tested models (including acute challenge versus disease-modifying models) and the absence of a recommended nonclinical DME/DR model with proven clinical translatability presents a challenge for the estimation of pharmacologically active exposure in humans.

[5] = target: T1, CB2 receptor on B-cells; test: CB2 receptor target engagement on B-cells in blood of participants of Study BP40387; assay type: in vivo
Description: In the Phase I single ascending dose (SAD) and multiple ascending dose (MAD) study (BP40387), CB2R-TE was measured in blood from healthy participants that received single and multiple 0.75-300 mg doses of RO6868847. Based on clinical RO6868847 pharmacokinetics (PK) and pharmacodynamics (PD; measured by CB2R-TE) data and accounting for the difference between healthy and diabetics subjects, the lower end of the 0.75 mg to 300 mg-dose range is expected to achieve approximately up to half-maximum CB2R-TE, whereas the higher end of that dose range is predicted to achieve maximum CB2R-TE.
(§1) In example 2, target engagement of RO6868847 was assessed on circulating B-cells from whole blood samples utilizing a newly developed exploratory flow cytometry assay to monitor RO6868847-induced CB2 receptor internalization on B-cells. […] Upon treatment discontinuation CB2 receptor surface expression returned to baseline approximately within 1 week. Target engagement appeared to reach a plateau at doses of 100 mg RO6868847 with only marginal increases at higher doses of RO6868847. In example 2, pro-inflammatory cytokine production was induced by ex vivo stimulation with LPS in freshly obtained whole blood samples, to measure downstream markers of RO6868847-mediated CB2 receptor internalization and explore its pharmacological profile. Serum levels of TNF-α, G-CSF, IL-1β, and […], of participants in Study BP40387 were assessed to investigate the changes of these cytokines in the presence of repeated dose administration of up to 300 mg RO6868847 once-daily for 14 days. […] It should be noted that the IL1-β analysis was negatively affected by a substantial proportion of baseline data, not being reportable (see FIG. 8), especially at the highest tested doses of 300 mg of RO6868847. Substantial variability in these measurements was observed. However, this was expected and no dedicated predefined statistical analysis was performed since cohort sizes were small for this exploratory assessment.

[6] = tested on: LPS-induced cytokine production in whole blood; test: Ex vivo LPS whole blood challenge in participants of Study BP40387 (MAD); set-up: species or system human
Description: In addition to the CB2R-TE whole blood assay, an in vitro LPS whole blood challenge assay was applied using blood from healthy participants that received multiple 300 mg doses of RO6868847 6 in the MAD study.
as §1

[7] = steady-state, up to 300 mg once-daily for 14 days

T1 sequence (P34972 whole entry): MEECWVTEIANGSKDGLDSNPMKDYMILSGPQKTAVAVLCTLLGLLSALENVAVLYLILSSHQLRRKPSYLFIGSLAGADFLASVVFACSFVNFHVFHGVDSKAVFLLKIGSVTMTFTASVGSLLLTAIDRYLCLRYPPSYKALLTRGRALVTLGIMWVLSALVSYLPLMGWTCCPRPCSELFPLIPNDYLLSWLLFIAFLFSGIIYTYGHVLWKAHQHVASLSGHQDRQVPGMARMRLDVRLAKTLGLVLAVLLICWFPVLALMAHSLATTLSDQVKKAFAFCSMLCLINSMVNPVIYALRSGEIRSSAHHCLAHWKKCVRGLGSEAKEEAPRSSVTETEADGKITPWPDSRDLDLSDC
cynomolgus monkey CB2, sequence (G7NVV5 1-360): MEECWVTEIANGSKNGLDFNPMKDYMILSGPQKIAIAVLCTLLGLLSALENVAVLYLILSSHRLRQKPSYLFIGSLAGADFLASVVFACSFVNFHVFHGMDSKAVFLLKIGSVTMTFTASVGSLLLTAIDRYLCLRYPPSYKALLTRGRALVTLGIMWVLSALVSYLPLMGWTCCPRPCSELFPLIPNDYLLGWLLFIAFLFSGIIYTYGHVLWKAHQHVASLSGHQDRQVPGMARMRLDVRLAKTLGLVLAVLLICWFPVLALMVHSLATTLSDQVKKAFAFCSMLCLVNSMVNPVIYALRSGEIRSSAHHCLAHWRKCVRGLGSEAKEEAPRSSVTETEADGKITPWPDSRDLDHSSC

With `Cn1nnnc1Cn1nnc2c(N3CC[C@H](O)C3)nc(C(C)(C)C)nc21` [RO6868847, (3S)-1-[5-tert-butyl-3-[(1-methyltetrazol-5-yl)methyl]triazolo[4,5-d]pyrimidin-7-yl]pyrrolidin-3-ol] the IC50 ([1]; CHO cells) was 1.06 ± 0.08 nM, the Emax ([1]; CHO, normalized to 10 μM CP55′940) was 94.6% and the “selectivity for CB2” value [2] was “excellent selectivity for CB2”. The “Fold change vs HPs” value ([3]; DM) was 1.8x, the Emax ([3]; DM, n = 8) was 56.2 ± 11.7% and the “Fold change vs HPs” value ([3]; Healthy Participants) was 1. The “CB2 surface expression on B-cells” value ([3]; Healthy Participants, n = 9) was “concentration-dependent reduction of CB2 surface expression on B-cells”, the “Mean Emax ± SD (%)” value ([3]; Healthy Participants, n = 9) was 55.0 ± 4.6 (n = 9) % and the Emax ([3]; Healthy Participants, n = 9) was 55 ± 4.6%. The “Fold change vs HPs” value ([3]; Matched Healthy) was 2.6 x, the Emax ([3]; Matched Healthy, n = 8) was 55.7 ± 6.8% and the IC50 ([3]; Mean IC50 (CB2 on B-cells) ± SD (nM), DM, n = 8, one outlier excluded) was 172 ± 82 nM. The IC50 ([3]; Mean IC50 (CB2 on B-cells) ± SD (nM), Healthy Participants, n = 9, 1 hour at 37° C.) was 96.5 ± 27.1 nM, the IC50 ([3]; Mean IC50 (CB2 on B-cells) ± SD (nM), Matched Healthy, n = 8) was 253 ± 206 nM and the “fold higher concentration/exposure required for similar CB2R target engagement” value ([3]; diabetic and matched (elderly) healthy vs younger healthy participants) was 2-3 fold and ~3 fold. The “CB2 receptor internalization on the surface of B-cells” value ([3]; diabetic patients and matched healthy participants) was “dose-dependent CB2 receptor internalization”, the IC50 ([3]; mean IC50 (TE), Healthy participants, 9 donors, converted) was 96.5 nM and the “leukostasis in the eye” value [4] was “inhibition of leukostasis in the eye”. For the same compound, the “time for CB2 receptor surface expression to return to baseline” value ([5]; after treatment discontinuation) was no more than 1 week, the “dose at which target engagement reaches a plateau” value ([5]; multiple dose) was 100 mg and the “CB2 receptor target engagement on B-cells in blood” value ([5]; single and multiple oral doses up to 300 mg) was “reversible, dose-dependent and sustained; also recorded: dose-dependent, long-lasting, but reversible”. For the same compound, the “LPS-induced cytokine release / pro-inflammatory cytokine production” value ([6]; multiple doses, MAD) was “appeared to attenuate; also recorded: attenuation of LPS-induced cytokine release was observed only at the higher end of the dose range”, the “IFN-γ level after ex vivo LPS vs baseline” value [6, 7] was “did not show any detectable trend” and the “TNF-α, G-CSF and IL1-β levels after ex vivo LPS vs baseline” value [6, 7] was “concentration-dependent effect”.
